Data on 3 compounds can be found in patent US7947686B2, “Substituted pyrazolo[4,3-c]pyridine derivatives active as kinase inhibitors” (Nerviano Medical Sciences S.r.l., priority 2005, dated 2011).

Test [1] has as its target T1, IGF1R (Homo sapiens, UniProt P08069). The test can be described thus: Biochemical assay for inhibitors of IGF-1R kinase activity (trans-phosphorylation, 33P-ATP, Dowex). The note with it: read-out: IGF1R IC50 (μM) Biochemical assay. On the set-up: amino acid residues 960-1367 of precursor protein; made in house; host or cells: H5 insect cells (baculovirus; virus produced in Sf21 cells). The procedure:
Human cDNA was used as template for amplification by polymerase chain reaction (PCR) of the predicted cytoplasmic portion of IGF-1R (amino acid residues 960-1367 of precursor protein; see NCBI Entrez Protein Accession #P08069) which includes the entire kinase domain. PCR was conducted using the forward primer sequence 5′-[…]-3′ (SEQ ID NO:1) and the reverse primer sequence 5′-[…]-3′ (SEQ ID NO:2). In order to facilitate subsequent cloning steps, both primers comprise a BamHI restriction endonuclease site sequence. This PCR product was cloned in frame using BamHI sticky ends into a transfer vector for the baculovirus expression system, pVL1392 (Pharmingen), previously modified by insertion into the pVL1392 multiple cloning site of sequences encoding Glutathione S-transferase (GST) fusion protein, PreScission protease cleavage site and partial MCS cassette derived from the pGex-6P plasmid (Amersham BioSciences). Insertion of the IGF-1R PCR product described above into the pGex-6P derived BamHI site of the modified pVL1392 vector results in an open reading frame corresponding to the pGEX-6P GST protein and PreScission peptide fused with the human IGF-1R cytoplasmic domain. In order to obtain fusion protein, Sf21 insect cells (Invitrogen) are cotransfected with 2 microg of purified plasmid and 1 microg of virus DNA (BaculoGold™ Transfection Kit, Pharmingen), as described in the Baculovirus Instruction manual (Pharmingen). A first amplification of the virus is performed using 600 microL of cotransfected virus on 6×10^6 Sf21 in a monolayer culture, in 12 mL of medium (TNM-FH Grace's medium—Pharmingen). After 3 days the medium is collected, centrifuged and transferred to a sterile tube. A second amplification is prepared with the same method using 2 mL on 3×10^7 cells, diluted in 40 mL of medium. For the third amplification of virus, 1 mL of supernatant from the second round are used per 3×10^7 cells diluted in 40 mL of medium. […]
The inhibitory activity of putative kinase inhibitors and the potency of selected compounds were determined using a trans-phosphorylation assay. […]
Target sequence in this assay (P08069 960-1367): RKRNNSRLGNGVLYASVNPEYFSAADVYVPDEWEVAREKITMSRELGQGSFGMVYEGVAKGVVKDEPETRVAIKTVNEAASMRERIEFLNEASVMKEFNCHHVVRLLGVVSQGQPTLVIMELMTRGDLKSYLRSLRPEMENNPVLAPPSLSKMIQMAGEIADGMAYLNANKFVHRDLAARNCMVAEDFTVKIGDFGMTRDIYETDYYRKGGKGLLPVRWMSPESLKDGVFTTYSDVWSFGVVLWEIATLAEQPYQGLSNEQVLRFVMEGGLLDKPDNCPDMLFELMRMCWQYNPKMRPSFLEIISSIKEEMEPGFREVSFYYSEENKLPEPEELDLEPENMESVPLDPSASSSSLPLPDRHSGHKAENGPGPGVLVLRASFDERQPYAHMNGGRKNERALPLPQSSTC

The test system of test [2] is IGF1-induced S6 phosphorylation. The test can be described thus: Growth factor induced S6 ribosomal protein phosphorylation in primary human fibroblasts. Conditions: normal human dermal fibroblasts (NHDF), 10 nM IGF-1; read-out: Inhibition of IGF1-induced S6 phosphorylation IC50. The class given is cell-based. The procedure: Growth Factor Induced […] Ribosomal Protein Phosphorylation in Primary Human Fibroblasts.
Phosphorylation of S6 ribosomal protein in response to growth factor stimulation of normal human dermal fibroblasts (NHDF) was used to assess compound potency in inhibiting IGF-1 induced signal transduction in cells, and selectivity towards EGF and PDGF stimulus. NHDF cells obtained from PromoCell (Heidelberg, Germany), were maintained at 37° C. in a humidified atmosphere with 5% CO2 in complete Fibroblast Growth Medium (PromoCell). For assay, NHDF were seeded in 384-well tissue culture plates (clear- and flat-bottomed black plates; Matrix Technologies Inc., Hudson, N.H., USA) at a density of 5000 cells/well in serum-free medium containing 0.1% bovine serum albumin (BSA) and incubated for 5 days. Starved cells were treated for 1 hour with desired doses of compounds and then stimulated for a further 2 hours with either 10 nM IGF-1 (Invitrogen Corp., CA, USA), 10 nM EGF (Gibco BRL, USA) or 1 nM PDGF-B/B (Roche Diagnostics GmbH, Germany). Cells were then fixed in PBS/3.7% paraformaldehyde for 20 minutes at room temperature, washed ×2 with PBS, and permeabilized with PBS/0.3% Triton X-100 for 15 minutes. Wells were then saturated with PBS/1% non-fat dry milk (Bio-Rad Laboratories, Hercules, Calif., USA) for 1 hour, and then probed for 1 hour at 37° C. with anti-phospho-S6 (Ser 235/236) antibody (Cell Signaling Technology, Beverly, Mass., USA, cat. #2211) at 1/200 dilution in PBS/1% milk/0.3% Tween 20. […] Fluorescence images in the DAPI and Cy5™ channels were automatically acquired, stored and analysed using a Cellomics ArrayScan™ IV instrument (Cellomics, Pittsburgh, USA); the Cellomics Cytotoxicity Algorithm was used to quantify cytoplasmic fluorescence associated with phospho-S6 (Cy5™ signal parameter: “Mean Lyso Mass-pH”) for each cell in 10 fields/well, and eventually expressed as a mean population value. […]

Test [3] deals with T1, IGF1R. The test can be described thus: Western blot analysis of receptor phosphorylation following stimulation with IGF-1 in MCF-7 human breast cancer cells. It counts as cell-based. The note with it: starved MCF-7 cells, increasing concentrations of compound, then 10 nM IGF1; pIGF1R band, FIG. 1. On the set-up: endogenous in cells; host or cells: MCF-7 (ATCC#HTB-22). The procedure: [formula] where νb is the baseline velocity, ν is the observed reaction velocity, ν0 is the velocity in the absence of inhibitors, and [I] is the inhibitor concentration. Cell-Based Assays for Inhibitors of IGF-1R Kinase Activity Western Blot Analysis of Receptor Phosphorylation Following Stimulation with IGF-1 in MCF-7 Human Breast Cancer Cells
MCF-7 cells (ATCC#HTB-22) were seeded in 12-well tissue culture plates at 2×10^5 cells/well in E-MEM medium (MEM+Earle's BSS+2 mM glutamine+0.1 mM non-essential amino acids)+10% FCS, and incubated overnight at 37° C., 5% CO2, 100% relative humidity. Cells were then starved by replacing E-MEM+10% FCS with E-MEM+0.1% BSA, and incubating overnight. After this incubation, wells were treated with desired concentrations of compound for 1 hour at 37° C., and were then stimulated with 10 nM recombinant human IGF-1 (Invitrogen, Carlsbad, Calif., USA) for 10 minutes at 37° C. Cells were then washed with PBS and lysed in 100 microL/well cell lysis buffer (M-PER Mammalian Protein Extraction Reagent [Product #78501, Pierce, Rockford, Ill., USA]+10 mM EDTA+Protease inhibitor cocktail [Sigma-Aldrich product #P8340]+phosphatase inhibitor cocktail [Sigma-Aldrich products #P2850+#P5726]). Cell lysates were cleared by centrifugation at 10,000×g for 5 minutes, and 10 microg/lane of cleared lysate protein were run on NuPAGE gels (NuPAGE 4-12% 10-lane Bis-Tris gels, Invitrogen) with MOPS running buffer, then transferred onto Hybond-ECL nitrocellulose filters (Amersham Biosciences, Little Chalfont, Buckinghamshire, UK) using Mini PROTEAN II chambers (Bio-Rad Laboratories, Hercules, Calif., USA). […]
Target sequence in this assay (P08069 31-1367): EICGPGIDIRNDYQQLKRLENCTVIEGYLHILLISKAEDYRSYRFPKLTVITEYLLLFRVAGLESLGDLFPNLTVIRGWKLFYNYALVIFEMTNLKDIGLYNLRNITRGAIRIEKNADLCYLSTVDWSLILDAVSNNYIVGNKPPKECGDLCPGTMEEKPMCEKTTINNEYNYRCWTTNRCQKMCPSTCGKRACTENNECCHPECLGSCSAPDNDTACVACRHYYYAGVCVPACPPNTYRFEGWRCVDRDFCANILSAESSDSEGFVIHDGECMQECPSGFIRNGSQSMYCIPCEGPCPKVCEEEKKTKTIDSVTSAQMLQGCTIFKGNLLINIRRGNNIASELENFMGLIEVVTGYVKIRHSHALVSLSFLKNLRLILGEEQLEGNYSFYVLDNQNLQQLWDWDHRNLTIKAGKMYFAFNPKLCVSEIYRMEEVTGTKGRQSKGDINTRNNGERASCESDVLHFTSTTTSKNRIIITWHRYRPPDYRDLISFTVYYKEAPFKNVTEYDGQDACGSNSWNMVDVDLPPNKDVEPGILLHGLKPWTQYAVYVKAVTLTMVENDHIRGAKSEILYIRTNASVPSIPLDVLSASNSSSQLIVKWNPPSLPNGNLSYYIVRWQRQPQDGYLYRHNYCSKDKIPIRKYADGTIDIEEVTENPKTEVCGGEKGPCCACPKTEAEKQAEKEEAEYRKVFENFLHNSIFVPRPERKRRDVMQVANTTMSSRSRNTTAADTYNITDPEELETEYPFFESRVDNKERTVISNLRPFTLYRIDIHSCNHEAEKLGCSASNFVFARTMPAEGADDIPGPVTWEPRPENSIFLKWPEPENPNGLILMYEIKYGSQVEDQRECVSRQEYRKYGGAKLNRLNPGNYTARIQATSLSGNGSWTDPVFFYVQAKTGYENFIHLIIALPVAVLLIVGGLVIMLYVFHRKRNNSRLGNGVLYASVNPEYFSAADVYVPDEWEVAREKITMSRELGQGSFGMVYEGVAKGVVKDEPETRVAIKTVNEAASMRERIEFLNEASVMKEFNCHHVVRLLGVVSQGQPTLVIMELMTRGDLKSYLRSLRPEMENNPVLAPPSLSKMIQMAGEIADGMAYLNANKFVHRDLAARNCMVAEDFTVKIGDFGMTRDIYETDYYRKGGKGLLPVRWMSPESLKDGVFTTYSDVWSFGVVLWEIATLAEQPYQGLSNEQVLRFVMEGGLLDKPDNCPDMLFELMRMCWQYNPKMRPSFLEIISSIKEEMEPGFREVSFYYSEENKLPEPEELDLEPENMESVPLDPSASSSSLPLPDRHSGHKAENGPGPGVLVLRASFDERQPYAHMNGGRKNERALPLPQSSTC

For `CN1CCN(c2ccc(C(=O)Nc3n[nH]c4c3CN(S(=O)(=O)c3cc(F)cc(F)c3)CC4(C)C)c(NC(=O)C3CCOCC3)c2)CC1` [Compound 293, Tetrahydro-pyran-4-carboxylic acid [2-[5-(3,5-difluoro-benzenesulfonyl)-7,7-dimethyl-4,5,6,7-tetrahydro-1H-pyrazolo[4,3-c]pyridin-3-ylcarbamoyl]-5-(4-methyl-piperazin-1-yl)-phenyl]-amide], the 50% inhibitory concentration (IC50) worked out at 0.14 µM in test [1] and 280 nM in test [2]. In test [3], the “inhibition of IGF1R auto-phosphorylation” value is listed as “inhibition of IGF1-induced IGF1R auto-phosphorylation”.

With `CN1CCN(c2ccc(C(=O)Nc3n[nH]c4c3CN(S(=O)(=O)c3cc(F)cc(F)c3)CC4)c(NCc3ccco3)c2)CC1` [Compound 52, N-[5-(3,5-Difluoro-benzenesulfonyl)-4,5,6,7-tetrahydro-1H-pyrazolo[4,3-c]pyridin-3-yl]-2-[(furan-2-ylmethyl)-amino]-4-(4-methyl-piperazin-1-yl)-benzamide], the values for the half-inhibitory concentration (IC50) in test [1] and in test [2] were 0.055 µM and 640 nM, respectively. Also, in test [3], the “inhibition of IGF1R auto-phosphorylation” value is reported as “inhibition of IGF1-induced IGF1R auto-phosphorylation”.

On to `CN1CCN(c2ccc(C(=O)Nc3n[nH]c4c3CN(S(=O)(=O)c3cc(F)cc(F)c3)CC4)c(NC(=O)c3ccc[nH]3)c2)CC1` [Compound 28, 1H-Pyrrole-2-carboxylic acid [2-[5-(3,5-difluoro-benzenesulfonyl)-4,5,6,7-tetrahydro-1H-pyrazolo[4,3-c]pyridin-3-ylcarbamoyl]-5-(4-methyl-piperazin-1-yl)-phenyl]-amide], for which the figures for the IC50 in test [1] and in test [2] were 0.049 µM and 80 nM, respectively. Besides, the “inhibition of IGF1R auto-phosphorylation” value in test [3] is listed as “inhibition of IGF1-induced IGF1R auto-phosphorylation”.
